Results: PubChem BioAssay AID1918934 (Molecular Pharmacology Branch, DTP, NCI, 2023)

System: 292921-168-R-J2-PDC complex spheroid viability
Experiment: Anticancer human tumor 292921-168-R-J2-PDC patient-derived pancreatic carcinoma cell line growth inhibition
Conditions: for IC50: curve of first compound; for viability, T/C: stronger effect = lower value
From the text: Multicellular complex tumor spheroid response to LSD1 Inhibitor Iadademstat in combination with a variety of drugs and investigational agents in selected tumor cell lines
The current study was undertaken to assess response to LSD1 inhibitors in combination with standard-of-care drugs and investigational agents in solid tumor complex spheroid models as well as in the K-562 leukemia. Complex spheroids include a stromal component modeled by human endothelial cells (HUVEC) and fibroblasts modeled by human mesenchymal stem cells (MSCs). The concentration ranges selected for each drug and investigational agent were based upon clinically achievable concentrations if the clinical Cmax of the agent was known.
Compounds. The drugs and investigational agents used in this study are listed on Table 1. All of the agents used, including staurosporine (NSC755774) and gemcitabine (NSC613327), were obtained from the Developmental Therapeutics Program, NCI. FDA-approved anticancer drugs are available from the NCI at http://dtp.nci.nih.gov/branches/dscb/oncology_drugset_explanation.html. Drugs and investigational agents were >95% pure by proton nuclear magnetic resonance (NMR) and liquid chromatography/mass spectrometry (LC/MS). Stock solutions were prepared at 400x in DMSO, stored at -70 degrees C, and diluted in fresh medium prior to their use. The final concentration of DMSO in cell culture wells never exceeded 0.25% (v/v). The FDA-approved anticancer drug set is available from the Developmental Therapeutics Program at https://dtp.cancer.gov/organization/dscb/obtaining/available_plates.htm. All drugs and investigational agents were tested over a range starting from a high concentration at or near the clinical Cmax and decreasing in half-log increments. If the clinical Cmax for an agent had not been determined, the highest concentration tested was 10 microM.
Cell Lines. The patient-derived cancer cell (PDC) lines: 292921-168-R-J2-PDC, K24384-001-R-PDC, and 521955-158-R2-J5-PDC pancreatic carcinomas, 556581-035-R-J1 ovarian carcinoma, 324938-238-R-J1-PDC, 855422-203-R-J1-PDC and 883617-216-R-J1-PDC urothelial bladder carcinomas, 743489-274-T-PDC renal cell carcinoma, 138582-R-J1 Merkel cell tumor, K60290-347-R-J1 and K57222-313-R-J1-PDC glioblastomas, 653999-131-R-J2-PDC, LG0703-F948-PDC, and 349418-098-R-PDC non-small cell lung carcinomas, 885512-296-R-J2-PDC, 171881-019-R-J1-PDC breast carcinomas and 186277-243-T-J2-PDC and 233499-124-R-J2-PDC colon carcinomas were obtained from the NCI Patient-Derived Models Repository (PDMR, https://pdmr.cancer.gov). The established cell lines NCI/ADR-RES (RRID:CVCL_14520 and OVCAR-5 (RRID:CVCL_1628) ovarian carcinomas, 786-O (RRID:CVCL_1051) and A498 (RRID:CVCL_A498) renal cell carcinoma, NCI-H211 (ATCC, cat. CRL-5824; RRID:CVCL_1529), NCI-H196 (ATCC, cat. CRL-5823, RRID:CVCL_1509), SW 1271 (ATCC, cat. CRL-2177, RRID:CVCL_1716) and NCI-H1876 (ATCC, cat. CRL-5902, RRID:CVCL_1503) small cell lung carcinomas, MDA-MB-231 (RRID:CVCL_0062) and MDA-MB-468 (RRID:CVCL_0419)breast carcinomas (10-12). Pooled donor human umbilical vein endothelial cells (HUVEC, Lonza, cat. CC-2519) and human mesenchymal stem cells (hMSC, Lonza, cat. PT-2501) were purchased from Lonza (Walkersville, MD).
Cell Culture. All cells were maintained in an incubator at 37 degrees C and 5% CO2 with 95% humidity. The PDC lines were cultured according to standard operating procedures established by the NCI PDMR (https://pdmr.cancer.gov). Briefly all PDCs were thawed and cultured in Matrigel-coated flasks prepared with a working solution of 1X Ham's F-12 nutrient mix, without supplementation (Invitrogen, Waltham, MA, cat. 11765054), 100 U/mL penicillin-streptomycin (Invitrogen, cat. 15140122), and 2.5% Matrigel (Corning Inc., Corning, NY, cat. 354248) for the first three passages. […]
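Further: seven day compound exposure before luminescent viability read.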
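Wherever viability, T/C is given: 100% = DMSO vehicle control wells.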

For CC(C)CC(NC(=O)C(Cc1ccccc1)NC(=O)c1cnccn1)B(O)O (stereo not given) + NC1CCC(NC2CC2c2ccccc2)CC1, the IC50 (second compound 0.1 µM) was < 0.316 nM, the IC50 (second compound 0.316 µM) was < 0.316 nM and the IC50 (second compound 1 µM) was < 0.316 nM. For the same compound, the IC50 (second compound 3.16 µM) was < 0.316 nM, the IC50 (second compound 10 µM) was < 0.316 nM and the viability, T/C (second compound 0.1 µM, first compound 0.000316 µM) was 16.3%. For the same compound, the viability, T/C (second compound 0.1 µM, first compound 0.001 µM) was 0.63%, the viability, T/C (second compound 0.1 µM, first compound 0.00316 µM) was 0.17% and the viability, T/C (second compound 0.1 µM, first compound 0.01 µM) was 0.16%. It also gave a viability, T/C (second compound 0.1 µM, first compound 0.0316 µM) of 0.11%, a viability, T/C (second compound 0.1 µM, first compound 0.1 µM) of 0.14% and a viability, T/C (second compound 0.316 µM, first compound 0.000316 µM) of 15.9%. The viability, T/C (second compound 0.316 µM, first compound 0.001 µM) was 0.67%, the viability, T/C (second compound 0.316 µM, first compound 0.00316 µM) was 0.21% and the viability, T/C (second compound 0.316 µM, first compound 0.01 µM) was 3.23%. It also gave a viability, T/C (second compound 0.316 µM, first compound 0.0316 µM) of 0.17%, a viability, T/C (second compound 0.316 µM, first compound 0.1 µM) of 0.19% and a viability, T/C (second compound 1 µM, first compound 0.000316 µM) of 16.1%. For the same compound, the viability, T/C (second compound 1 µM, first compound 0.001 µM) was 0.64%, the viability, T/C (second compound 1 µM, first compound 0.00316 µM) was 0.24% and the viability, T/C (second compound 1 µM, first compound 0.01 µM) was 0.12%. The viability, T/C (second compound 1 µM, first compound 0.0316 µM) was 0.26%, the viability, T/C (second compound 1 µM, first compound 0.1 µM) was 0.25% and the viability, T/C (second compound 3.16 µM, first compound 0.000316 µM) was 13.8%. The viability, T/C (second compound 3.16 µM, first compound 0.001 µM) was 0.62%, the viability, T/C (second compound 3.16 µM, first compound 0.00316 µM) was 0.17% and the viability, T/C (second compound 3.16 µM, first compound 0.01 µM) was 0.1%. For the same compound, the viability, T/C (second compound 3.16 µM, first compound 0.0316 µM) was 0.08%, the viability, T/C (second compound 3.16 µM, first compound 0.1 µM) was 0.16% and the viability, T/C (second compound 10 µM, first compound 0.000316 µM) was 12.2%. The viability, T/C (second compound 10 µM, first compound 0.001 µM) was 0.55%, the viability, T/C (second compound 10 µM, first compound 0.00316 µM) was 0.22% and the viability, T/C (second compound 10 µM, first compound 0.01 µM) was 0.19%. It also gave a viability, T/C (second compound 10 µM, first compound 0.0316 µM) of 0.14% and a viability, T/C (second compound 10 µM, first compound 0.1 µM) of 0.47%.

Compound COc1cc(C2c3cc4c(cc3C(OC3OC5COC(C)OC5C(O)C3O)C3COC(=O)C23)OCO4)cc(OC)c1O (stereo not given) + NC1CC1c1ccc(-c2cccc(O)c2)cc1 has an IC50 (second compound 0.1 µM) of 42.7 nM, an IC50 (second compound 0.316 µM) of 21.3 nM and an IC50 (second compound 1 µM) of 21.4 nM. The IC50 (second compound 3.16 µM) was 13.7 nM, the IC50 (second compound 10 µM) was < 9.49 nM and the viability, T/C (second compound 0.1 µM, first compound 0.00949 µM) was 84.3%. The viability, T/C (second compound 0.1 µM, first compound 0.03 µM) was 58.9%, the viability, T/C (second compound 0.1 µM, first compound 0.0949 µM) was 30.1% and the viability, T/C (second compound 0.1 µM, first compound 0.3 µM) was 19.4%. For the same compound, the viability, T/C (second compound 0.1 µM, first compound 0.949 µM) was 7.22%, the viability, T/C (second compound 0.1 µM, first compound 3 µM) was 4.45% and the viability, T/C (second compound 0.316 µM, first compound 0.00949 µM) was 64.8%. It also gave a viability, T/C (second compound 0.316 µM, first compound 0.03 µM) of 44.4%, a viability, T/C (second compound 0.316 µM, first compound 0.0949 µM) of 25.7% and a viability, T/C (second compound 0.316 µM, first compound 0.3 µM) of 18.6%. For the same compound, the viability, T/C (second compound 0.316 µM, first compound 0.949 µM) was 8.04%, the viability, T/C (second compound 0.316 µM, first compound 3 µM) was 5.02% and the viability, T/C (second compound 1 µM, first compound 0.00949 µM) was 64.7%. For the same compound, the viability, T/C (second compound 1 µM, first compound 0.03 µM) was 43.3%, the viability, T/C (second compound 1 µM, first compound 0.0949 µM) was 27.4% and the viability, T/C (second compound 1 µM, first compound 0.3 µM) was 16.4%. It also gave a viability, T/C (second compound 1 µM, first compound 0.949 µM) of 5.52%, a viability, T/C (second compound 1 µM, first compound 3 µM) of 4.94% and a viability, T/C (second compound 3.16 µM, first compound 0.00949 µM) of 54.8%. The viability, T/C (second compound 3.16 µM, first compound 0.03 µM) was 39.9%, the viability, T/C (second compound 3.16 µM, first compound 0.0949 µM) was 24.3% and the viability, T/C (second compound 3.16 µM, first compound 0.3 µM) was 15.2%. For the same compound, the viability, T/C (second compound 3.16 µM, first compound 0.949 µM) was 7.27%, the viability, T/C (second compound 3.16 µM, first compound 3 µM) was 3.74% and the viability, T/C (second compound 10 µM, first compound 0.00949 µM) was 44.7%. It also gave a viability, T/C (second compound 10 µM, first compound 0.03 µM) of 27.4%, a viability, T/C (second compound 10 µM, first compound 0.0949 µM) of 23% and a viability, T/C (second compound 10 µM, first compound 0.3 µM) of 17.1%. It also gave a viability, T/C (second compound 10 µM, first compound 0.949 µM) of 6.98% and a viability, T/C (second compound 10 µM, first compound 3 µM) of 5.53%.
